Usually fraction unbound stands for free concentration divided by total concentration. The term microsomal CLint denotes a measure of how fast metabolising enzymes remove a compound, apart from limits set by blood flow. A higher microsomal CLint goes with rapid turnover. Broadly, the Km is the concentration of substrate that gives half-maximal velocity. One may read the AUC(0-inf) as total exposure, with the tail of the curve extrapolated. Broadly, the Cmax is the peak of the concentration-time curve. In general, MRT refers to the average time that molecules of a dose stay in the body. In general, Tmax refers to the time at which the peak concentration occurs. In general, Vd refers to the apparent volume that relates the amount in the body to the concentration in plasma or blood. A low value points to confinement near the circulation. A word on the half-life: it is the time in which the quantity being followed falls by half. Lower therefore signals fast loss.

The values below come from PMC9866629, “Pharmacokinetics of Novel Furoxan/Coumarin Hybrids in Rats Using LC-MS/MS Method and Physiologically Based Pharmacokinetic Model” (Molecules, 2023).

A short description of data set [1]: Free drug fraction (fu) in rat plasma by ultrafiltration. In kind it is in vitro ADME. The method, then: The fu of furoxan/coumarin hybrids in plasma was measured through the ultrafiltration method by using Amicon Ultra-15 ultrafiltration centrifuge tube (0.5 mL, 3-kDa membrane, Millipore, Bedford, MA, USA). […] One batch was incubated in a shaking water bath at 37 °C for 30 min, and the other batch was incubated for 60 min. After incubation, a plasma sample was transferred into ultrafiltration tube and centrifuged at 10,000 rpm for 20 min. The free compound in the filtrated fraction was determined directly by LC-MS/MS. All experiments were performed in triplicate.

Data set [2] can be described thus: Blood-to-plasma concentration ratio (B/P) in rat blood. In kind it is in vitro ADME. The settings on record: 37 °C, 1 μg/mL (CY-14S-4A83, CY-16S-4A43), 5 μg/mL (CY-16S-4A93). As for the experimental part:
Two batches of blood samples were prepared in parallel. One batch of the blood samples was then incubated in a shaking water bath at 37 °C for 30 min, and the other batch was incubated for 60 min. After incubation, one 150 μL aliquot of blood samples was centrifuged at 1500 rpm for 5 min, and the concentrations of the testing compound in the resulting plasma portion after extraction were determined by LC-MS/MS. In parallel, another 50 uL aliquot of the blood incubation sample was transferred into an Eppendorf tube and lysed by three-cycle freeze/thaw method. After the cell-lysis and extraction, the concentration of testing compound in the whole blood sample was determined by LC-MS/MS. The B/P was determined directly by the ratio of drug concentration in the whole blood to the plasma concentration. All experiments were performed in triplicate.

Data set [3] is described as follows: In vitro intrinsic clearance, disappearance via rat liver microsomes. In kind it is in vitro ADME. The settings on record: for microsomal CLint: Sprague Dawley, rat, pooled liver microsomes, pH 7.4, rat hepatic microsomes; for microsomal CLint / CLint: Vmax divided by Km; for Km at 20 min: pooled rat liver microsomes, pH 7.4; for Km at 20 min / Vmax: rat hepatic microsomes 0.2 mg protein/mL, NADPH 1 mM, 20 min; for CLint: rat hepatic microsomes. The method, then: The incubation mixture with a final volume of 50 μL contained the testing compound, rat liver microsomes (0.2 mg protein/mL), phosphate buffer ([…], pH 7.4), and NADPH (1 mM). Before adding NADPH, the reaction mixture was preincubated in a shaking water bath at 37 °C for 5 min. 200 μL of methanol–acetonitrile mixture (1:1) containing IS was added to terminate the reaction after incubation for 20 min. Concentration of the testing compound was determined by LC-MS/MS after centrifugation at 14,000 rpm for 15 min. […] All experiments were performed in triplicate.
(§1) Vmax and Km were estimated via the nonlinear regression of the Michaelis–Menten model by using GraphPad Prism (Version 6.01, http://www.graphpad.com/). The PK parameters were determined from drug plasma concentration-time data by employing a noncompartmental approach using Phoenix WinNonlin (version 3.0).
(In general: Liver microsomes are vesicles of endoplasmic reticulum, rich in cytochrome P450 enzymes.)

Data set [4] in a line: Pharmacokinetic study after intravenous administration to rats. The settings on record: for clearance / AUC(0-inf) / Cmax / MRT / Tmax / Vd / half-life / AUC(0-t): rat, plasma; for AUC(0-t): read-out: AUC(0–24 h). Type of data set: in vivo, rat. The method, then:
Rats were randomly divided into three groups, namely A, B, and C, with six rats in each group. […] Blood samples (0.15–0.2 mL) were collected through the femoral artery into an Eppendorf tube moistened with heparinized 0.9% NaCl before intravenous injection (0 h) and at 0.083, 0.25, 0.5, 1, 2, 4, 8, 12, and 24 h after intravenous injection. The blood sample was immediately centrifuged at 3000 rpm for 10 min at a temperature of 4 °C, and the upper plasma sample was collected and stored at −80 °C until analysis.
The plasma samples were thawed at room temperature before determination. Further, 20 μL of plasma was pipetted into a 1.5 mL Eppendorf tube, and 80 μL of methanol–acetonitrile (1:1, v/v) solution containing 200 ng/mL IS was added to precipitate the proteins. The contents were mixed thoroughly via vortexing the plasma sample for 40 s. The supernatant was aspirated for LC-MS/MS analysis after centrifugation at 14,000 rpm for 15 min.
as §1

The nature of data set [5]: PBPK modeling (Simcyp Rat). The settings on record: blood, intravenous, in rats, calculated on the basis of B/P and the plasma clearance rate, read-out: liver blood clearance. The source says:
PBPK models were constructed with physical chemistry and in vitro PK parameters, such as molecular weight (MW), octanol–buffer partition coefficient (log Po:w), compound type, pKa, B/P, fu, and CLint, using Simcyp (Simcyp Rat Version 16, Sheffield, UK). Two physical chemistry parameters of log Po:w and pKa were predicted on the basis of the structure of the chemicals by using the ADMET Predictor (v.9.0, Lancaster, http://www.simulations-plus.com/, accessed on 9 September 2019). Other parameters, including B/P, fu, and CLint, were obtained through in vitro experiments as mentioned above. The time course of xenobiotic concentration in plasma was simulated, and the PBPK models were further optimized on the basis of the experimental in vivo PK parameters (AUC, Cmax, and time to reach Cmax (Tmax)). The prediction accuracy of the PBPK model was evaluated by introducing the deviation (fold error) of the predicted PK parameters and comparing them with the experimental ones. The equation of the fold error is shown below. A simulation with fold errors no greater than 2 is acceptable [36, 42]. (1) fold error=observed parameter/predicted parameter;if observed value>predicted value (2) fold error=predicted parameter/observed parameter;if predicted value>observed value

Data set [6] is described as follows: Stability test of QC plasma samples (LC-MS/MS validation). In kind it is physicochemical, rat. The settings on record: QC plasma samples 20–800 ng/mL, frozen at −80 °C for one week, n = 5. The method, then: The concentration of the testing compound was calculated by using the calibration curves with seven dots (10, 25, 50, 100, 250, 500, and 1000 ng/mL). The calibration line was constructed by plotting the peak area ratio (y-axis) of analytes to IS versus the nominal concentration (x-axis). The specificity and selectivity were investigated by comparing the chromatograms of blank plasma samples with the corresponding samples spiked with testing compounds. The signal-to-noise ratio (S/N) of the lower limit of quantification (LLOQ) was at least at 10. The linearity of the calibration graph was validated, and the calculated concentrations of the calibration standards should be all within ±15% of the nominal value, except for the LLOQ of ±20%. The linear correlation coefficient (R^2) should be 0.9900 or greater. The intra- and interday precisions and accuracy of the method were assessed by determining the quality control (QC) samples of […] (six samples at each concentration level) over 3 consecutive days. The coefficient of variation (CV) should not exceed 20% at LLOQ and should be within 15% for QCs. The relative error (RE) should be within 80%–120% at LLOQ and within 85%–115% for QCs. Recovery was assessed by comparing peak area of nominal QC plasma samples with peak area of the spike-after extraction samples (six samples at each concentration level). The matrix effect was evaluated by comparing peak area of the spike-after extraction samples with that of the analytes spiked in pure water (six samples at each concentration level). The recovery and matrix factor should be within 85%–115%. The variation in recovery and matrix effect should be less than 15%. The dilution integrity test was performed for samples exceeding the upper limit of quantification (ULOQ). QCs were prepared (5 samples at each concentration level) and frozen at […] for one week. LC-MS/MS analysis was performed to calculate the stability (RE). Samples of 25 μg/mL (n = 6) were diluted with blank matrix to 0.5 μg/mL, which was within the calibration line range, and the RE should be within 85–115%.

Setting [7] is: 1.67 mg/kg, experimental value compared with PBPK prediction, read-out: experimental CL.
Setting [8] is: single dose 1.67 mg/kg, read-out: CL (converted).

Values joined by “and” are separate entries in the source; they are usually repeats but may differ in a detail not shown here. Equal entries are not always repeated. Where two headings read alike, the source gives them in different places. Bounds are passed on as bounds.

Turning to `Cc1c(Cc2ccc(F)cc2)c(=O)oc2cc(OCCOc3no[n+]([O-])c3S(=O)(=O)c3ccccc3)ccc12` [CY-14S-4A83], in data set [1] (rat, fresh rat plasma), the fraction unbound at 30 min came out at 0.0298 ± 0.002 and the fraction unbound at 60 min was 0.0217 ± 0.0003. Besides, the f u in data set [1] (value used in the PBPK modeling) stood at 0.02. Further, in data set [2] (incubation time 30 min), the B/P stood at 12.11 ± 0.094. The B/P in data set [2] (incubation time 60 min) is on record as 12.34 ± 0.03. Besides, in data set [3], the intrinsic clearance (microsomal CLint) came to 336 µL/min/mg; the Km at 20 min turned out to be 18000 ± 2300 nM; the Vmax was 6044.0 pmol/min/mg Protein and 6044.0 ± 290.8 pmol/min/mg Protein; the CLint worked out at 336.033 µL/min/mg. In addition, in data set [4] (0.5 mg/kg), the “plasma concentration within 24 h (stays above LLOQ)” value is reported as more than 10 ng/mL. The clearance in data set [4] (0.5 mg/kg, experimental value compared with PBPK prediction, read-out: experimental CL) was 1.73 mL/min. Also, in data set [4] (single dose 0.5 mg/kg), the AUC(0-inf) worked out at 1340 ± 475 ng·h/mL, the peak level (Cmax) was 946 ± 452 ng/mL, the mean residence time MRT is 6.1 ± 1.5 h and the Tmax came out at 12 ± 12 min. In data set [4] (single dose 0.5 mg/kg), the volume of distribution (Vd) is 0.56 ± 0.15 L/kg, the half-life is 60 ± 12 min and the AUC(0-t) is 1310 ± 462 ng·h/mL. In addition, in data set [4] (single dose 0.5 mg/kg, read-out: CL (converted)), the clearance was 6.91 mL/min/kg. Also, the clearance in data set [5] was 0.23 mL/min. Moreover, the “Stability (RE)” value in data set [6] is listed as 88–94.4%.

Take `Cc1c(Cc2ccc(C#N)cc2)c(=O)oc2cc(OCCOc3no[n+]([O-])c3S(=O)(=O)c3ccccc3)ccc12` [CY-16S-4A43]: in data set [3], the microsomal CLint was found to be 333 µL/min/mg; the Michaelis-Menten constant (Km) at 20 min amounted to 1400 ± 300 nM; the Vmax is 481.2 pmol/min/mg Protein and 481.2 ± 30.0 pmol/min/mg Protein. Moreover, in data set [4] (1.67 mg/kg), the “time within which plasma concentration dropped to less than 10 ng/mL” value was in the range of 2 to 4 h. Further, in data set [4] (setting [7]), the clearance was 10.9 mL/min. For the same compound, in data set [4] (single dose 1.67 mg/kg), the total exposure AUC(0-inf) was found to be 673 ± 182 ng·h/mL, the highest level (Cmax) was 1210 ± 482 ng/mL, the MRT is 4.5 ± 1 h and the Tmax came to 6 ± 6 min. In data set [4] (single dose 1.67 mg/kg), the distribution volume (Vd) came out at 2.03 ± 0.63 L/kg, the half-life is 30 ± 6 min and the AUC(0-t) was determined as 669 ± 182 ng·h/mL. Further, the clearance in data set [4] (setting [8]) is 43.7 mL/min/kg. The clearance in data set [5] was 1.87 mL/min. Besides, the “Stability (RE)” value in data set [6] is 86–99.5%.

As for `Cc1c(Cc2ccc(C(F)(F)F)cc2)c(=O)oc2cc(OCCOc3no[n+]([O-])c3S(=O)(=O)c3ccccc3)ccc12` [CY-16S-4A93], in data set [3], the microsomal CLint turned out to be 174 µL/min/mg, the Michaelis constant (Km) at 20 min came out at 1300 ± 200 nM and the Vmax came out at 220.0 pmol/min/mg Protein. In data set [3] (listed as CY-14S-4A93), the Vmax turned out to be 220.0 ± 14.1 pmol/min/mg Protein and the CLint is 173.83 µL/min/mg. In data set [4] (1.67 mg/kg), the “plasma concentration within 24 h (stays above LLOQ)” value is listed as more than 10 ng/mL. Moreover, the clearance in data set [4] (setting [7]) is 2.08 mL/min. Moreover, in data set [4] (single dose 1.67 mg/kg), the total exposure AUC(0-inf) came to 3850 ± 1770 ng·h/mL, the Cmax was 9380 ± 4210 ng/mL, the mean residence time (MRT) worked out at 2.2 ± 0.7 h and the time of peak concentration (Tmax) stood at 6 min. In data set [4] (single dose 1.67 mg/kg), the Vd is 0.68 ± 0.38 L/kg, the half-life is 54 ± 12 min and the AUC(0-t) was determined as 3850 ± 1770 ng·h/mL. The clearance in data set [4] (setting [8]) was 8.34 mL/min/kg. In addition, the clearance in data set [5] is 0.24 mL/min. For the same compound, the “Stability (RE)” value in data set [6] is 86.5–94.7%.
